# Experimental data taken from the supplement of paper PMC10307832.
# Legend:
# Test in all cases: relative viability (nuclei count vs DMSO), 5 days (fraction); higher = more cells survive
# AZ3146 + Bortezomib = compound: CN1CCC(CC1)OC2=CC(=C(C=C2)NC3=NC=C4C(=N3)N(C(=O)N4C)C5CCCC5)OC [AZ3146] + CC(C)C[C@H](NC(=O)[C@H](Cc1ccccc1)NC(=O)c1cnccn1)B(O)O [Bortezomib] (partner 0.002 µM)
# How it was run: (§1)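 Lung cancer cell lines were seeded in 1536-well plates and dosed by pin tool the next day, with either a single drug or a fixed anchor-drug dose combined with five library-drug doses (not always all listed) spaced in √10 steps. Five days later, one step fixed the cells and stained their nuclei (final 0.05% Triton X-100, 1% formaldehyde, 1 ug/ml Hoechst), and nuclei were counted on 4× images. Relative viability is the nuclei count in treated wells divided by the count in vehicle wells, and each value is the median of duplicate plates.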
# GSK-J4 + Tozasertib = compound: CCOC(=O)CCNc1cc(N2CCc3ccccc3CC2)nc(-c2ccccn2)n1 [GSK-J4] + Cc1cc(Nc2cc(N3CCN(C)CC3)nc(Sc3ccc(NC(=O)C4CC4)cc3)n2)n[nH]1 [Tozasertib] (partner 0.1 µM)
# How it was run: as §1
# AZ3146 + Lapatinib = compound: CN1CCC(CC1)OC2=CC(=C(C=C2)NC3=NC=C4C(=N3)N(C(=O)N4C)C5CCCC5)OC [AZ3146] + CS(=O)(=O)CCNCc1ccc(-c2ccc3ncnc(Nc4ccc(OCc5cccc(F)c5)c(Cl)c4)c3c2)o1 [Lapatinib] (partner 2 µM)
# How it was run: as §1
# GSK-J4 + Phenformin = compound: CCOC(=O)CCNc1cc(N2CCc3ccccc3CC2)nc(-c2ccccn2)n1 [GSK-J4] + N=C(N)NC(=N)NCCc1ccccc1 [Phenformin] (partner 250 µM)
# How it was run: as §1
Cell Line,relative viability (AZ3146 + Bortezomib; first compound 0.08 µM),relative viability (AZ3146 + Bortezomib; first compound 0.253 µM),relative viability (AZ3146 + Bortezomib; first compound 0.8 µM),relative viability (AZ3146 + Bortezomib; first compound 2.53 µM),relative viability (AZ3146 + Bortezomib; first compound 8 µM),relative viability (GSK-J4 + Tozasertib; first compound 0.5 µM),relative viability (GSK-J4 + Tozasertib; first compound 1.581 µM),relative viability (GSK-J4 + Tozasertib; first compound 5 µM),relative viability (GSK-J4 + Tozasertib; first compound 15.81 µM),relative viability (GSK-J4 + Tozasertib; first compound 50 µM),relative viability (AZ3146 + Lapatinib; first compound 0.08 µM),relative viability (AZ3146 + Lapatinib; first compound 0.253 µM),relative viability (AZ3146 + Lapatinib; first compound 0.8 µM),relative viability (AZ3146 + Lapatinib; first compound 2.53 µM),relative viability (AZ3146 + Lapatinib; first compound 8 µM),relative viability (GSK-J4 + Phenformin; first compound 0.5 µM),relative viability (GSK-J4 + Phenformin; first compound 1.581 µM),relative viability (GSK-J4 + Phenformin; first compound 5 µM),relative viability (GSK-J4 + Phenformin; first compound 15.81 µM),relative viability (GSK-J4 + Phenformin; first compound 50 µM)
NCI-H661,0.71,0.893,0.92,0.922,0.692,0.355,0.3,0.357,0.335,0.413,0.661,0.514,0.559,0.537,0.472,0.269,0.312,0.238,0.258,0.266
NCI-H727,1.02,0.953,0.717,0.934,1.18,0.714,0.541,0.621,0.585,0.463,0.745,0.557,0.79,1.29,0.869,0.566,0.76,0.791,0.589,0.441
NCI-H838,0.908,0.832,0.882,0.738,0.302,0.299,0.26,,0.26,0.21,1.07,0.939,0.935,0.858,0.32,0.798,0.465,,0.528,0.487
NCI-H1355,1.09,1.19,1.17,1.25,1.28,0.517,0.517,0.575,0.439,0.437,0.854,0.951,0.986,1.03,0.953,0.447,0.39,0.333,0.359,0.36
NCI-H1437,0.497,0.441,0.469,0.535,0.479,0.391,0.372,0.384,0.377,0.293,0.708,0.739,0.829,0.899,0.519,0.319,0.263,0.308,0.371,0.25
NCI-H1650,0.204,0.226,0.205,0.168,0.2,0.369,0.393,0.333,0.311,0.301,0.649,1.12,0.562,0.97,0.581,0.512,0.415,0.375,0.4,0.408
NCI-H1651,0.827,1.02,0.995,0.921,0.969,0.674,0.623,0.807,0.569,0.567,0.757,0.854,0.815,0.921,0.636,0.294,0.308,0.348,0.384,0.392
NCI-H1666,0.838,0.791,0.948,0.809,0.743,0.606,0.499,0.635,0.534,0.502,0.681,0.669,0.694,0.891,0.536,0.512,0.515,0.605,0.486,0.464
NCI-H1734,0.98,1.03,0.895,0.992,0.834,0.266,0.251,0.26,0.246,0.259,1.05,1.17,1.07,1.1,0.942,0.425,0.365,0.328,0.332,0.31
NCI-H1755,1.03,0.996,0.921,1.04,0.667,0.585,0.582,0.553,0.531,0.581,1.03,1.05,0.973,1.05,1.05,0.606,0.5,0.367,0.49,0.56
NCI-H1915,0.933,1.01,0.502,0.955,0.973,0.404,0.395,,0.409,0.337,1.05,0.864,1.04,0.933,1.02,0.36,0.327,,0.369,0.388
NCI-H1975,0.36,0.425,0.383,0.384,0.256,0.721,0.716,0.539,0.659,0.798,0.922,0.95,0.928,0.933,0.783,0.415,0.417,0.288,0.36,0.428
NCI-H1993,1.05,1.07,1.19,1.2,0.976,0.51,0.562,0.646,0.503,0.497,0.896,0.788,0.724,0.853,0.779,0.476,0.545,0.555,0.548,0.456
NCI-H2009,0.824,1.08,1.05,1.04,0.636,0.69,0.663,0.681,0.717,0.306,0.817,0.975,1.06,1.09,0.409,0.456,0.419,0.354,0.341,0.222
NCI-H2023,0.938,1.05,1.03,0.997,0.268,0.384,,0.335,0.371,0.222,0.688,0.922,0.735,0.941,0.179,0.441,,0.395,0.35,0.342
NCI-H2085,1,1.09,0.962,1.18,0.952,0.765,0.733,0.756,0.806,0.652,0.731,0.752,0.7,0.823,0.699,0.724,0.674,0.671,0.508,0.582
